Where two headings read alike, the source gives them in different places.
Key:
[1] = human, in vivo, po
[2] = 0.1 μM drug preincubated with serum 10 min at 37°

Row | SMILES | Drug level recovered in the radioreceptor assay [2] | other results
1 | CN1CCN(CCCN2c3ccccc3Sc3ccc(C(F)(F)F)cc32)CC1 [trifluoperazine] | 160 ± 200 nM | 
2 | CN(C)CCCN1c2ccccc2Sc2ccc(Cl)cc21 [chlorpromazine] |  | Drug level recovered in the radioreceptor assay (1 μM drug preincubated with serum 10 min at 37°): 1000 ± 100 nM
3 | OCCN1CCN(CCCN2c3ccccc3Sc3ccc(C(F)(F)F)cc32)CC1 [fluphenazine] | 120 ± 10 nM | 
4 | O=C(CCCN1CCC(O)(c2ccc(Cl)cc2)CC1)c1ccc(F)cc1 [Haloperidol] |  | concentration [1]: 10 to 350 nM

— patent US4197288A, “Neuroleptic radioreceptor assay method and kit” (Burroughs Wellcome Co., priority 1977, dated 1980)
